Measured values reported in US11873295B2, “Allosteric chromenone inhibitors of phosphoinositide 3-kinase (PI3K) for the treatment of disease” (Petra Pharma Corporation, priority 2021, dated 2024).

Key:
[1] = target: T1, human full length PIK3KA Wild-type (p110α/p85α complex) (Homo sapiens, UniProt P42336); experiment: PI3K-alpha kinase (PIK3CA) biochemical activity, wild-type, ADP-Glo; conditions: PI3K-α (PIK3CA) biochemical
T1 construct: Recombinant, catalytically active human full length PIK3KA Wild-type and H1047R mutant were purchased as 1:1 complex; 6xHis (N); purchased EMD Millipore Sigma 14-602M
Excerpt: (§1) PI3K-Alpha Kinase (PIK3CA) Activity, Wild-Type and H1047R Mutant and Determining IC50 Values for Inhibitors
(§2) Recombinant, catalytically active human full length PIK3KA Wild-type and H1047R mutant were purchased as 1:1 complex of N-terminal 6× his tagged p110α (catalytic) and untagged p85α (regulatory subunit) from EMD Millipore Sigma (cat. no. 14-602M and 14-792M, respectively). PIP2diC8 (Avanti Polar Lipids Inc., cat. no. 850185) or Soy PI (Avanti Polar Lipids Inc., cat. No. 840044P) was used as lipid substrate. PIP2diC8 or PI lyophilized powder was dissolved in milliQ water to a concentration of 1 mM just before use. 10 mM stock compounds in DMSO were serially diluted 1:3 to generate a 10-point curve and plated using an acoustic liquid handler system (Echo 550 series instrument, Labcyte). A 10× intermediate compound plate (200 uM starting compound concentration and 10% DMSO) was prepared before starting the reaction. A typical reaction mixture (50 uL) comprised 40 mM HEPES buffer, pH 7.4, 25 mM MgCl2, 0.01% v/v triton-X-100, 1% v/v DMSO, 20 mM NaCl, 1-5 nM WT or H1047R PI3K protein, 20 uM ATP, and 50 uM PIP2diC8 or Soy PI. 1% DMSO buffer alone without test compound was employed as MAX control (full activity in the absence of any inhibitor), and no enzyme control was used to determine the level of background Adenosine 5′-diphosphate (ADP) (MIN control). First, Wild-type (WT) and H1047R mutant protein in kinase buffer with all components except ATP were incubated with or without compound at 27° C. for 1 h. After the pre-incubation, the reaction was initiated by the addition of 20 uL of 50 uM ATP (20 uM final concentration). The reaction was allowed to proceed until about 10% conversion of ATP (2 uM ADP) at 27° C. After that time, 5 uL of reaction was mixed with 5 uL of ADP-Kinase Glo Reagent (ADP-Glo Kinase assay kit, Promega cat. no. V9102) supplemented with MgCl2 10 mM to stop the reaction and deplete the remaining ATP for 40 min at room temperature. Then, 10 uL of Kinase Detection Reagent (ADP-Glo Kinase assay kit, Promega cat. no. V9102) was added to simultaneously convert ADP to ATP and allow the newly synthesized ATP to be measured using a luciferase/luciferin reaction. After 30 min at room temperature the light generated was measured using a luminometer (EnVision plate reader, Perkin Elmer). Process data through Genedata-Screener tool. Relative IC50 values are determined using luminescence units by calculating percent inhibition with respect to on-plate “MIN” and “MAX” controls. Data was analyzed using a 4-parameter nonlinear logistic equation (four-parameter logistic concentration-response curve): Y=bot+[(top−bot)/1+(x/IC50)slope] where Y=% inhibition, X=concentration yielding y % inhibition, Bottom=minimum value of y attained by curve, Top=maximum value of y attained by curve and Slope=steepness of curve at IC50. % Inh=[(median Max−x/median Max−median Min)]·100 IC50: concentration of compound that reduces a given response (ligand binding, enzyme response) by 50%. IC50 relative: concentration giving half the compound's maximum response.
(§3) For IC50 values shown in Table A, “A” means IC50<0.5 μM; “B” means IC50 ranging between 0.5 μM and 1.0 μM; “C” means IC50 ranging between 1 μM and 5 μM; “D” means IC50 ranging between 5 μM and 10 μM; “E” means IC50>10 μM.

[2] = target: T2, human full length PIK3KA H1047R mutant (p110α/p85α complex) (Homo sapiens, UniProt P42336, H1047R); experiment: PI3K-alpha kinase (PIK3CA) biochemical activity, H1047R mutant, ADP-Glo; conditions: PI3K-α (PIK3CA) biochemical, H1047R mutant
T2 construct: Recombinant, catalytically active human full length PIK3KA Wild-type and H1047R mutant were purchased as 1:1 complex; 6xHis (N); purchased EMD Millipore Sigma 14-792M
T2 sequence (P42336 whole entry H1047R): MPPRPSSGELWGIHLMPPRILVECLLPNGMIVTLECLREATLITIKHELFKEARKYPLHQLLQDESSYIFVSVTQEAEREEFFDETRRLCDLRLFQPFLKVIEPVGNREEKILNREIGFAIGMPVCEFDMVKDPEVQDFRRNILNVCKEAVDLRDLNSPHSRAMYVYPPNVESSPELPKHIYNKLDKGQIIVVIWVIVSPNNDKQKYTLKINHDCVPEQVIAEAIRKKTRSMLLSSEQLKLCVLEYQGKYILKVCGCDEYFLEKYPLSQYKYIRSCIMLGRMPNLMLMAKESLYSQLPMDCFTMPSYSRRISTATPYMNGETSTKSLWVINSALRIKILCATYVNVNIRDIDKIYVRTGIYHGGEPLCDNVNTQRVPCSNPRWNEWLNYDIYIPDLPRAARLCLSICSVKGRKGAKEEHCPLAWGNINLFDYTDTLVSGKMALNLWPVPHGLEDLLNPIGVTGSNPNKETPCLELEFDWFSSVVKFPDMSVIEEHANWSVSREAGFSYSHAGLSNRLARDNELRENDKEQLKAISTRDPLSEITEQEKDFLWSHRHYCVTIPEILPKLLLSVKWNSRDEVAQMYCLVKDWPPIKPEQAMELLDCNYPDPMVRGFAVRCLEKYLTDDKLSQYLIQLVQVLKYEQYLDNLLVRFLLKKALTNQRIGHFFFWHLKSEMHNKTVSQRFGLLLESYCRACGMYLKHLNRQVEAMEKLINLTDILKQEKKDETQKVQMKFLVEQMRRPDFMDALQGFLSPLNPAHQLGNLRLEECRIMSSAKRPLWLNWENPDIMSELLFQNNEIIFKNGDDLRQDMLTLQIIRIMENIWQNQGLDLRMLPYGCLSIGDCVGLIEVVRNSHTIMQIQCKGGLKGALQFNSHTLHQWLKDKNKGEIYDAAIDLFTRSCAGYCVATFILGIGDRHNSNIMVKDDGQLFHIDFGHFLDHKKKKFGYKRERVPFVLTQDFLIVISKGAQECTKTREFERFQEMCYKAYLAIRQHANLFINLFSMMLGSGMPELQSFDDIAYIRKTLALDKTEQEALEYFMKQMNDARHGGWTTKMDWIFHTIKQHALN
T2 sequence (P27986 whole entry partner): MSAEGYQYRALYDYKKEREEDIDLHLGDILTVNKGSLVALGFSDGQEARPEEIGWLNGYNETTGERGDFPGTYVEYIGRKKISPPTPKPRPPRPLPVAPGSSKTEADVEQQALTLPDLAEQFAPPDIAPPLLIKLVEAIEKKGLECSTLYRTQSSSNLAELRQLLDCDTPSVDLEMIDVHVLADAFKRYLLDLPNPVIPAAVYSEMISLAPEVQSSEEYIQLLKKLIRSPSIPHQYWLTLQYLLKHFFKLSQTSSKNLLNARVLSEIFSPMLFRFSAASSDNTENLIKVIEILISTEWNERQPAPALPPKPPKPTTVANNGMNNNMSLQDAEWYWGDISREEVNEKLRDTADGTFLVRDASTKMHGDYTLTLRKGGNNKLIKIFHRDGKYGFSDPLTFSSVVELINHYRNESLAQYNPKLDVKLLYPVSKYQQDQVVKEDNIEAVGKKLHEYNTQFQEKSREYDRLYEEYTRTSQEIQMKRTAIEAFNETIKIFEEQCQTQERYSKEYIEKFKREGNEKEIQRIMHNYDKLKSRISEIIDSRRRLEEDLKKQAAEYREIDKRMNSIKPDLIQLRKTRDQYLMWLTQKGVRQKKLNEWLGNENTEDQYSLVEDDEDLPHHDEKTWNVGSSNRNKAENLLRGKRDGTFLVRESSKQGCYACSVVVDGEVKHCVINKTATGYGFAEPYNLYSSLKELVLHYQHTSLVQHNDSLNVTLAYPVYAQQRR
Excerpt: as §1, §2, §3

[3] = PIP2diC8 lipid substrate (footnote 1)

| Compound | IC50 ([1]; Soy PI lipid substrate) [nM] | IC50 ([2]; Soy PI lipid substrate) [nM] | IC50 [1, 3] [nM] | IC50 [2, 3] [nM] |
| --- | --- | --- | --- | --- |
| Cc1cc(C(C)Nc2ccccc2C(=O)O)c2oc(-c3ccc(N4CCCC4)cc3)cc(=O)c2c1 (stereo not drawn) [Example 45, 2-[1-[6-Methyl-4-oxo-2-(4-pyrrolidin-1-ylphenyl)chromen-8-yl]ethylamino]benzoic acid 2,2,2-trifluoroacetic acid] | > 10000 | < 500 | – | – |
| Cc1cc([C@@H](C)Nc2cncnc2C(=O)O)c2oc(-c3ccccc3)c(C)c(=O)c2c1 [Example 74, 5-[[(1R)-1-(3,6-Dimethyl-4-oxo-2-phenyl-chromen-8-yl)ethyl]amino]pyrimidine-4-carboxylic acid] | > 10000 | < 500 | – | – |
| Cc1cc(C(C)Nc2ccccc2C(=O)O)c2oc(-c3ccc(S(C)(=O)=O)cc3)cc(=O)c2c1 (single isomer, unassigned; isomer 1) [Example 47, 2-[1-[6-Methyl-2-(4-methylsulfonylphenyl)-4-oxo-chromen-8-yl]ethylamino]benzoic acid, Isomer 1] | > 10000 | > 10000 | – | – |
| Cc1cc([C@@H](C)Nc2ccccc2C(=O)O)c2oc(-c3cccc(F)c3)cc(=O)c2c1 [Example 18, 2-[[(1R)-1-[2-(3-Fluorophenyl)-6-methyl-4-oxo-chromen-8-yl]ethyl]amino]benzoic acid] | – | – | < 500 | < 500 |
| Cc1cc(C(C)Nc2ccccc2C(=O)O)c2oc(-c3ccc(C(=O)N(C)C)cc3)cc(=O)c2c1 (stereo not drawn) [Example 8, 2-[1-[2-[4-(Dimethylcarbamoyl)-phenyl]-6-methyl-4-oxo-chromen-8-yl]ethylamino]benzoic acid 2,2,2-trifluoroacetic acid] | > 10000 | < 500 | – | – |
| Cc1cc([C@@H](C)Nc2ccccc2C(=O)O)c2oc(-c3ccccc3)cc(=O)c2c1 [Example 22, 2-[[(1R)-1-(6-Methyl-4-oxo-2-phenyl-chromen-8-yl)ethyl]amino]benzoic acid] | – | – | < 500 | < 500 |
| Cc1c(-c2cccc(C(F)F)c2)oc2c([C@@H](C)Nc3ccccc3C(=O)O)cc(F)cc2c1=O [Example 83, 2-[[(1R)-1-[2-[3-(Difluoromethyl)phenyl]-6-fluoro-3-methyl-4-oxo-chromen-8-yl]ethyl]amino]benzoic acid 2,2,2-trifluoroacetic acid] | 5000 to 10000 | < 500 | – | – |
| CC(Nc1ccccc1C(=O)O)c1cc(F)c(F)c2c(=O)cc(-c3ccccc3)oc12 (stereo not drawn) [Example 64, 2-[1-(5,6-Difluoro-4-oxo-2-phenyl-chromen-8-yl)ethylamino]benzoic acid 2,2,2-trifluoroacetic acid] | > 10000 | < 500 | – | – |
| CC(Nc1ccccc1C(=O)O)c1c(F)c(F)cc2c(=O)cc(-c3ccccc3)oc12 (stereo not drawn) [Example 6, 2-[1-(6,7-Difluoro-4-oxo-2-phenyl-chromen-8-yl)ethylamino]benzoic acid 2,2,2-trifluoroacetic acid] | – | – | 1000 to 5000 | < 500 |
| CC(Nc1ccccc1C(=O)O)c1cc(C(F)(F)F)cc2c(=O)cc(-c3ccccc3)oc12 (single isomer, unassigned; isomer 2) [Example 87, 2-[1-[4-Oxo-2-phenyl-6-(trifluoromethyl)-chromen-8-yl]ethylamino]benzoic acid, Isomer 2] | 5000 to 10000 | < 500 | – | – |
| Cc1cc(C(C)Nc2ccccc2C(=O)O)c2oc(-c3ccc(N4CCCC4)cc3)cc(=O)c2c1 (single isomer, unassigned; isomer 1) [Example 54, 2-[1-[6-Methyl-4-oxo-2-(4-pyrrolidin-1-ylphenyl)chromen-8-yl]ethylamino]benzoic acid, Isomer 1] | > 10000 | 500 to 1000 | – | – |
| Cc1cc(C(C)Nc2ccccc2C(=O)O)c2oc(-c3ccc(C(=O)N(C)C)cc3)cc(=O)c2c1 (single isomer, unassigned; isomer 1) [Example 49, 2-[1-[2-[4-(Dimethylcarbamoyl)-phenyl]-6-methyl-4-oxo-chromen-8-yl]ethylamino]benzoic acid, Isomer 1] | 5000 to 10000 | < 500 | – | – |
| Cc1cc(C(C)Nc2ccccc2C(=O)O)c2oc(-c3cccc(C(C)(C)C#N)c3)cc(=O)c2c1 (single isomer, unassigned; isomer 2) [Example 5, 2-[1-[2-[3-(1-Cyano-1-methyl-ethyl)phenyl]-6-methyl-4-oxo-chromen-8-yl]ethylamino]benzoic acid, Isomer 2] | > 10000 | < 500 | – | – |
| Cc1cc([C@@H](C)Nc2ccccc2C(=O)O)c2oc(-c3ccccc3C#N)c(C)c(=O)c2c1 [Example 34, 2-[[(1R)-1-[2-(2-Cyanophenyl)-3,6-dimethyl-4-oxo-chromen-8-yl]ethyl]amino]benzoic acid] | > 10000 | < 500 | – | – |

Next, values leading:

| IC50 ([1]; Soy PI lipid substrate) [nM] | IC50 ([2]; Soy PI lipid substrate) [nM] | IC50 [1, 3] [nM] | IC50 [2, 3] [nM] | Compound |
| --- | --- | --- | --- | --- |
| 1000 to 5000 | < 500 | – | – | C[C@@H](Nc1ccc(Cl)nc1C(=O)O)c1cc(C(F)(F)F)cc2c(=O)cc(-c3ccccc3)oc12 [Example 82, 6-Chloro-3-[[(1R)-1-[4-oxo-2-phenyl-6-(trifluoromethyl)-chromen-8-yl]ethyl]amino]pyridine-2-carboxylic acid] |
| 1000 to 5000 | < 500 | – | – | Cc1cc(C(C)Nc2ccccc2C(=O)O)c2oc(-c3ccccc3)c(C#N)c(=O)c2c1 (stereo not drawn) [Example 10, 2-[1-(3-Cyano-6-methyl-4-oxo-2-phenyl-chromen-8-yl)ethylamino]benzoic acid 2,2,2-trifluoroacetic acid] |
| 5000 to 10000 | < 500 | – | – | Cc1cc(C(C)Nc2sc(C)nc2C(=O)O)c2oc(-c3ccccc3)cc(=O)c2c1 (stereo not drawn) [Example 23, 2-Methyl-5-[1-(6-methyl-4-oxo-2-phenyl-chromen-8-yl)ethylamino]-thiazole-4-carboxylic acid 2,2,2-trifluoroacetic acid] |
| 1000 to 5000 | < 500 | – | – | Cc1cc([C@@H](C)Nc2ccc(C(F)(F)F)nc2C(=O)O)c2oc(-c3ccccc3)cc(=O)c2c1 [Example 27, 3-[[(1R)-1-(6-Methyl-4-oxo-2-phenyl-chromen-8-yl)ethyl]amino]-6-(trifluoromethyl)-pyridine-2-carboxylic acid] |
| 500 to 1000 | < 500 | – | – | Cc1cc([C@@H](C)Nc2ccccc2C(=O)O)c2oc(-c3ccccc3)c(I)c(=O)c2c1 [Example 79, 2-[[(1R)-1-(3-Iodo-6-methyl-4-oxo-2-phenyl-chromen-8-yl)ethyl]amino]benzoic acid 2,2,2-trifluoroacetic acid] |
| 1000 to 5000 | < 500 | – | – | Cc1cc([C@@H](C)Nc2ccccc2C(=O)O)c2oc(-c3ccc(F)cc3F)cc(=O)c2c1 [Example 57, 2-[[(1R)-1-[2-(2,4-Difluorophenyl)-6-methyl-4-oxo-chromen-8-yl]ethyl]amino]benzoic acid 2,2,2-trifluoroacetic acid] |
| 500 to 1000 | < 500 | – | – | Cc1cc(C(C)Nc2ccc(Cl)nc2C(=O)O)c2oc(-c3ccccc3)c(I)c(=O)c2c1 (single isomer, unassigned; isomer 2) [Example 154, 6-Chloro-3-[1-(3-iodo-6-methyl-4-oxo-2-phenyl-chromen-8-yl)ethylamino]pyridine-2-carboxylic acid, Isomer 2] |
